This note sets out measurements from article PMC5825229 (Molecular cell, 2017).

SMILES strings stand for the structures. Numbering of substitutions follows the chain as printed.

What all share (format): biochemical
The target in assay [1] is T1, human MCU and EMRE reconstituted in yeast mitochondria (HsMCU/EMRE) (Homo sapiens, UniProt Q8NE86).
T1 sequence (Q8NE86 51-351): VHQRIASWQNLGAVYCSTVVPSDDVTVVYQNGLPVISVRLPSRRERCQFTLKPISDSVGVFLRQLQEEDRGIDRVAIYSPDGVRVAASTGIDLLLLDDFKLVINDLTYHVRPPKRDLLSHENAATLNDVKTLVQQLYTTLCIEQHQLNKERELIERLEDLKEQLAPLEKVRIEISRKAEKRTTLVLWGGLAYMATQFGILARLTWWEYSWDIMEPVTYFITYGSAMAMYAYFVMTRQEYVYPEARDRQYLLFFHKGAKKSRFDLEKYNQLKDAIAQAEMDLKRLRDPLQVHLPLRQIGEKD
T1 sequence (Q9H4I9 53-107 partner): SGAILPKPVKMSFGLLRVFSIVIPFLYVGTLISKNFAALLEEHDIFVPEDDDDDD
Nature of the assay: aequorin Ca2+ uptake rate in isolated yeast mitochondria, Hill fit.

For assay [2], the target named is T2, human MCU and EMRE reconstituted in yeast mitochondria (HsMCU/EMRE) (Homo sapiens, UniProt Q8NE86, D261A).
T2 sequence (Q8NE86 51-351 D261A): T1 sequence (Q8NE86 51-351) with D211A
T2 sequence (Q9H4I9 53-107 partner): T1 sequence (Q9H4I9 53-107 partner)
Nature of the assay: aequorin peak Ca2+ in isolated yeast mitochondria, Hill fit.

Assay [3] deals with T3, MCU (native mitochondrial calcium uniporter of HEK293T mitoplasts and HeLa cells) (Homo sapiens, UniProt Q8NE86).
T3 sequence (Q8NE86 51-351): T1 sequence (Q8NE86 51-351)
T3 sequence (Q9H4I9 53-107 partner): T1 sequence (Q9H4I9 53-107 partner)
Nature of the assay: whole-mitoplast patch clamp, HEK293T. The conditions noted are these: 1 mM bath Ca2+, -160 mV; bath (cytosolic) side, reversible. Background: The patch-clamp technique gives a direct electrical read-out from membranes.

Regarding `O=C1c2c(O)ccc(O)c2C(=O)c2c(NCCNCCO)ccc(NCCNCCO)c21` [mitoxantrone], the concentration for half-maximal inhibition (IC50) came to 8.3 ± 0.9 µM in assay [1] and 10.7 ± 1.4 µM in assay [2]. For the same compound, the “% reduction of MCU Ca2+ current at 10 μM” value in assay [3] is given as ~ 85%.

For the compound `NCCNc1ccc(NCCN)c2c1C(=O)c1ccncc1C2=O` [pixantrone], the half-maximal inhibitory concentration (IC50) in assay [1] amounted to 15 ± 1 µM; in assay [2], 31.8 ± 6.5 µM.

In the case of `Nc1ccc(NCCNCCO)c2c1C(=O)c1c(O)ccc(O)c1C2=O` [impurity A], the half-maximal inhibitory concentration (IC50) in assay [1] was determined as 36 ± 0.2 µM.

The IC50 is the concentration needed to halve the response being measured. High values mean lower potency, low ones higher potency.
